Laboratory results reported in publication PMC8159961, “Exploring protein hotspots by optimized fragment pharmacophores” (Nature Communications, 2021).

How the values were obtained:
human 5-HT7b receptor = molecular target: T1, human 5-HT7b receptor (Homo sapiens, UniProt P34969); test: GPCR radioligand binding assay, [3H]-5-CT displacement, HEK293 membranes; settings: for 5-HT7 % Inhibition by plate position: 10 µM; for %inh 5-HT7 exp_1: replicate exp_1; for %inh 5-HT7 exp_2: replicate exp_2; for %inh 5-HT7 average: average of exp_1 and exp_2
T1 construct: expressed in transfected cells

human 5-HT1A receptor = molecular target: T2, human 5-HT1A receptor (Homo sapiens, UniProt P08908); test: GPCR radioligand binding assay, [3H]-8-OH-DPAT displacement, HEK293 membranes; settings: for %inh 5-HT1A average: average of exp_1 and exp_2; for %inh 5-HT1A corrected*: average, values below 0 and above 100% were set as 0 and 100; for %inh 5-HT1A exp_1: replicate exp_1; for %inh 5-HT1A exp_2: replicate exp_2
T2 construct: expressed in transfected cells
T2 sequence (P08908 1-422): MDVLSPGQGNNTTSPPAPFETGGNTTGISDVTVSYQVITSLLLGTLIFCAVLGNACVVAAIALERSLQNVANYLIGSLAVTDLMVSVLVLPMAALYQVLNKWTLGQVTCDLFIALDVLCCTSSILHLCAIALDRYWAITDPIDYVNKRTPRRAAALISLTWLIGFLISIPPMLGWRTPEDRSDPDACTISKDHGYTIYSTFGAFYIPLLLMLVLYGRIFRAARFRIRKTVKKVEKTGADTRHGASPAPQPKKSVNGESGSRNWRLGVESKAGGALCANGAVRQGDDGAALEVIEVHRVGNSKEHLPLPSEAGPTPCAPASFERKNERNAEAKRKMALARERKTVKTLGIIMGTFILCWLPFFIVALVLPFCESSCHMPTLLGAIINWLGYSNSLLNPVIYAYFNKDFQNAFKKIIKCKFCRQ

human 5-HT6 receptor = molecular target: T3, human 5-HT6 receptor (Homo sapiens, UniProt P50406); test: GPCR radioligand binding assay, [3H]-LSD displacement, HEK293 membranes; settings: for 5-HT6 % Inhibition by plate position: 10 µM; for %inh 5-HT6 average: average of exp_1 and exp_2; for %inh 5-HT6 corrected*: average, values below 0 and above 100% were set as 0 and 100; for %inh 5-HT6 exp_1: replicate exp_1; for %inh 5-HT6 exp_2: replicate exp_2
T3 construct: expressed in transfected cells
T3 sequence (P50406 whole entry): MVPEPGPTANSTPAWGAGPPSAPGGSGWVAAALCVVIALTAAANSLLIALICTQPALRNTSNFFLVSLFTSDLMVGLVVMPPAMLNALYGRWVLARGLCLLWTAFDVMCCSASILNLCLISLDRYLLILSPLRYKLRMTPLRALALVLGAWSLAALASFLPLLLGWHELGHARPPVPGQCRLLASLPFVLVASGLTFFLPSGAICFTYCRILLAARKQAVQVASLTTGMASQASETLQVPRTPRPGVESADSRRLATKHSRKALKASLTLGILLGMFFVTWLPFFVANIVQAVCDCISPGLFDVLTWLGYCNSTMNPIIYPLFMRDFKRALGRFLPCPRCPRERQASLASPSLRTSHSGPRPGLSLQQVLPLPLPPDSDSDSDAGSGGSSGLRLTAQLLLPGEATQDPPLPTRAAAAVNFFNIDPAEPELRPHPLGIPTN

T1 sequence (P34969 1-432): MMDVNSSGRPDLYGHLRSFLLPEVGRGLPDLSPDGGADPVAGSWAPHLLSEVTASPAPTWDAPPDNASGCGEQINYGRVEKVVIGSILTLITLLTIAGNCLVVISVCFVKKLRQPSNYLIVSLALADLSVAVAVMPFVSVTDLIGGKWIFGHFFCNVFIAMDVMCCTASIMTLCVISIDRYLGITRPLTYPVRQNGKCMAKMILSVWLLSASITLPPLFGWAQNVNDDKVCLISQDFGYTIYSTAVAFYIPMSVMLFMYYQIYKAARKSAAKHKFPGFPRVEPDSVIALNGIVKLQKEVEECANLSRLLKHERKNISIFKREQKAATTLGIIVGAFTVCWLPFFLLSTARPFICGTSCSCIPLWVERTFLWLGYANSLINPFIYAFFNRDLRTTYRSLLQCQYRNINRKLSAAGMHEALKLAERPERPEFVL

| SMILES | 5-HT7 % Inhibition by plate position (human 5-HT7b receptor) [%] | %inh 5-HT7 exp_1 (human 5-HT7b receptor) [%] | %inh 5-HT7 exp_2 (human 5-HT7b receptor) [%] | %inh 5-HT1A average (human 5-HT1A receptor) [%] | %inh 5-HT1A corrected* (human 5-HT1A receptor) [%] | %inh 5-HT1A exp_1 (human 5-HT1A receptor) [%] | %inh 5-HT1A exp_2 (human 5-HT1A receptor) [%] | 5-HT6 % Inhibition by plate position (human 5-HT6 receptor) [%] | %inh 5-HT6 average (human 5-HT6 receptor) [%] | %inh 5-HT6 corrected* (human 5-HT6 receptor) [%] | %inh 5-HT6 exp_1 (human 5-HT6 receptor) [%] | %inh 5-HT6 exp_2 (human 5-HT6 receptor) [%] | %inh 5-HT7 average (human 5-HT7b receptor) [%] | 5-HT1A % Inhibition by plate position (human 5-HT1A receptor; 10 µM) [%] |
| --- | --- | --- | --- | --- | --- | --- | --- | --- | --- | --- | --- | --- | --- | --- |
| CCN(CC)c1cccc(C)c1 [E4] | 7.56 | 12 | 2.81 | 8.49 | 8.49 | 13 | 4 | 31 | 31 | 31 | 31 | 32 | – | – |
| O=C(CN1CCNCC1)c1ccccc1 [E5] | 8 | 14 | 3 | 6 | 6 | 9.52 | 3 | 49 | 49 | 49 | 45 | 54 | – | – |
| Clc1ccc2nnnn2n1 [E6] | 0 | -5 | -20 | 3.55 | 3.55 | 3.18 | 4 | 35 | 35 | 35 | 38 | 31 | -13 | – |
| c1cnc2c(c1)NCCC2 [E7] | 0 | 6 | -14 | 12 | 12 | 15 | 9 | 28 | 28 | 28 | 28 | 29 | -3.73 | – |
| COc1cccc(NC2=NCCCCC2)c1 [E8] | 0 | 3.36 | -13 | 11 | 11 | 11 | 11 | 14 | 14 | 14 | 17 | 12 | -5 | – |
| N#Cc1ccc(C(=O)N2CCOCC2)cc1 [E10] | 9 | 10 | 7 | -13 | – | -3 | -23 | 37 | 37 | 37 | 33 | 41 | – | 0 |
| Oc1ccc(C2CCNCC2)cc1 [E11] | 11 | 10 | 12 | 5.37 | 5.37 | 3 | 8 | 43 | 43 | 43 | 44 | 42 | – | – |
| COC(=O)c1c(C)nc(C2CC2)[nH]c1=O [F1] | 23 | 23 | 22 | 16 | 16 | 17 | 15 | 41 | 41 | 41 | 38 | 44 | – | – |
